Results as given in patent US11986557B2, “Stealth nanoparticles” (HOWARD UNIVERSITY, priority 2018, dated 2024).

Legend:
MCF7 = test: In vitro cytotoxicity studies, MCF7; assay type: cell-based, human
Description: (§1) In vitro cytotoxicity studies were conducted to determine the cytotoxic effect of paclitaxel (as a free drug/not in nanoparticle), 17AAG (free drug), paclitaxel+17AAG combination (as free drugs), and paclitaxel+17AAG combination loaded nanoparticles on two human breast cancer cell lines, SKBR3 and MCF7.
(§2) In preparation of the drug combination treatment, one part of each drug was halved and combined, such that each drug in the combination treatment contained half the concentration of their single drug counterparts. This means that the paclitaxel concentration in the combination treatment is 50% of the paclitaxel (single drug) treatment. In other words, the ratio of the concentration in the single drug to its respective concentration in the combination is 2:1. Also, the drug concentration ratio within the combination (paclitaxel: 17AAG) was approximately 1:1.
(§3) For 5 days of assaying, three plates were treated for each day. The first was treated with paclitaxel solution (single drug) and paclitaxel/17AAG combination solution and second with 17AAG solution (single drug) and paclitaxel/17AAG combination solution. The last plate was treated with the combination drug loaded nanoparticle solution and paclitaxel/17AAG combination solution (free drug).

SKBR3 = test: In vitro cytotoxicity studies, SKBR3; assay type: cell-based, human
Description: as §1, §2, §3

[1] = pH 5.0 versus pH 7.4; cited from earlier work

Structure (SMILES) | Cytotoxic effect at low concentrations (MCF7) | Cytotoxic effect at low concentrations (SKBR3) | Hydrolysis rate [1]
C=CCNC1=C2C[C@@H](C)C[C@H](OC)[C@H](O)[C@@H](C)/C=C(\C)[C@H](OC(N)=O)[C@@H](OC)/C=C\C=C(/C)C(=O)NC(=CC1=O)C2=O [Formulation 17AAG, 17 allylamino, 17 demethoxygeldanamycin] | did not show any significant cytotoxic effect | did not show any significant cytotoxic effect | 
C=C(C)C(=O)OCCOC(OCCOC(=O)C(=C)C)c1ccc(OC)cc1OC [di (2-methacryloyloxyethoxy)-[2,4-dimethoxyphenyl]methane] |  |  | hydrolyzes much faster at pH 5.0 than at pH 7.4
